Measured values: patent publication US12521425B2, “Method of liver cancer treatment with safranal-based formulations” (priority 2019, dated 2026)

Legend:
HepG2 cells [1] = assay: Cell cycle analysis by flow cytometry; assay type: cell-based; settings: HepG2, 500 μM; for fraction of subG1 cells: DMSO control 0.9%
Protocol: Cell cycle analysis. HepG2 cells were seeded at density of 3×10^6 cells per flask in complete growth medium and were allowed to attach overnight. After which, cells were treated with 500 μM of safranal for different time intervals (6-48 hours). At the indicated time intervals, cells were collected by incubation with trypsin and washed twice with PBS. Collected cells were fixed in 70% ethanol, treated with RNase and stained with propidium iodide. Cell cycle distribution was analyzed by flow cytometry in a FACS scan (Becton Dickenson, Germany).

HepG2 cells [2] = assay: Caspase-3 and 7 activities (Caspase-Glo 3/7); assay type: cell-based; settings: HepG2, 500 and 700 μM, 24 hours
Protocol: Caspase-3 and 7 activities. HepG2 were seeded at a density of 5000 cells/well in a 96-well plate, and were allowed to attach. After which, cells were treated with 500 and 700 μM of safranal for 24 hours. Caspase-3 and 7 activities were detected using Caspase-Glo® 3/7 Assay kit according to manufacturer instructions (Promega). Luminescent signal was detected using GloMax Discover System (Promega).

HepG2 cells [3] = assay: RNAseq differential gene expression and GO enrichment; assay type: cell-based, Homo sapiens; settings: for genes significantly differentially expressed: vs untreated
Protocol: RNAseq libraries construction and sequencing. Total RNA was isolated from three biological replicates of safranal treatments and untreated sample using RNeasy Mini Kit (Qiagen) following the manufacturer's instructions. The RNAseq libraries were prepared using TruSeq RNA sample prep kit (Illumina, Inc.) following the manufacturer's instructions. Briefly, TruSeq RNA sample prep kit converts the poly-A containing mRNA in total RNA into a cDNA library using poly-T oligo-attached magnetic bead selection. Following mRNA purification, the RNA is chemically fragmented prior to reverse transcription and cDNA generation. The fragmentation step results in an RNAseq library that includes inserts that range in size from approximately 100-400 bp. The average insert size in an Illumina TruSeq RNA sequencing library is approximately 200 bp. The cDNA fragments then go through an end repair process, the addition of a single ‘A’ base to the 3′ end and then ligation of the adapters. Then, the products are purified and enriched with PCR to create the final double stranded cDNA libraries. Finally, libraries quality control and quantification were performed with a Bioanalyzer Chip DNA 1000 series II (Agilent) and sequenced directly using the high-throughput Illumina HiSeq sequencing system (Illumina, Inc.).
Alignment and analysis of Illumina reads against the reference genome. The data was processed through the standard RNAseq analysis pipeline at NYUAD. Briefly, alignments were performed using tophat2 v2.1.0 with the parameters “-no-novel-junctions” and “-G” when specifying the genome file. Following the tophat2 alignment stage, read counts were generated using HTseq count, and the counts were analyzed using the DESeq2 R library. The reference genome and GFF annotation correspond to the Homo sapiens GRCh38.p2 genome version. Venn diagram summarizing the gene expression analysis was constructed using the web-based tool InteractiVenn. Heatmaps were produced by Excel.
Gene set enrichment analysis. Functional and gene set enrichment analysis of DEGs was performed using eXploring Genomic Relations (XGR) which is an open source tool for enrichment analysis with default parameters. The enrichment test is based on Hypergeometric distribution to identify the enriched gene ontology terms. The false positive rate was calculated by simulating a random set of genes of different sizes and found they were independent of the size of gene sets. Network analysis of over-representation GO terms was performed using the Biological Networks Gene Ontology tool (BiNGO) plug-in for Cytoscape. BiNGO retrieved the relevant GO Biological process annotation then tested for significance using the hypergeometric test and corrected multiple testing using Benjamini and Hochberg false discovery rate (FDR) correction ≤0.05.

[4] = tested on: DEN-induced hepatic neoplasia; assay: Liver gross and histopathological examination in DEN-induced HCC model; assay type: in vivo, male Wistar rats; settings: HCC rats
Protocol: A modified version of the protocol described by DePeralta et al. (2016) and Schiffer et al. (2005) was used here to establish the hepatocarcinogenesis model.
On the first 15 weeks, the control PBS group was treated with 1×PBS, whereas the experimental groups were given an intraperitoneal injection (IP) of 50 mg/kg of diethylnitrosoamine (DEN, Sigma Aldrich), a widely used chemical for inducing cancer, once a week. DEN was diluted with 1×PBS. Following a one-week break (week 16), the next three weeks (weeks 17 to 19) of treatment commenced. All drugs were administrated by oral gavage. All doses were chosen according to literature (Alsaied et al., 2014; Karafakioglu et al., 2017). For the HCC+sorafenib group, the drug (Carbosynth Limited) was administered at a dose of 10 mg/kg, five days a week. For the HCC+safranal group, the drug (Sigma Aldrich) was administered at a dose of 200 mg/kg, five days a week. For the HCC+safranal+sorafenib group, the drugs were administered at a dose of 200 mg/kg safranal+10 mg/kg sorafenib, five days a week. Both safranal and sorafenib were diluted with 1×PBS and drops of Tween 80. […] After 24-hours from last treatment, the rats were euthanized by mild diethyl ether and dissected in equal conditions. Blood and whole liver were collected.
Liver sample specimens were fixed in 10% neutral buffered formalin, dehydrated in a series of graded ethanol, embedded in paraffin blocks, and cut into 3 μm-thick sections. To detect histopathological changes, sections were stained with hematoxylin and eosin (H&E), and reticulin stain kit according to the protocol provided (Abcam), then examined under light microscope (Ozkececi et al., 2016). Blinded examination of tissue samples was carried out by a pathologist from Tawam Hospital—United Arab Emirates.

[5] = male rats, oral (Hosseinzadeh et al., 2013); cited from earlier work

CC1=C(C=O)C(C)(C)CC=C1 [safranal]
cell cycle distribution (HepG2 cells [1]; 6 and 12 hours post treatment): G2/M phase arrest | cell cycle distribution (HepG2 cells [1]; 24 hours): S-phase arrest | fraction of subG1 cells (HepG2 cells [1]; after 24 hours): 6.3% | fraction of subG1 cells (HepG2 cells [1]; after 48 hours): 26.2% | activity of executioner caspases-3 and -7 (HepG2 cells [2]): increased | genes downregulated (HepG2 cells [3]; 12 hours): 3,769 genes | genes upregulated (HepG2 cells [3]; 12 hours): 2,812 genes | genes significantly differentially expressed (HepG2 cells [3]; 12 hours): 6,581 genes | genes downregulated (HepG2 cells [3]; 24 hours): 5,331 genes | genes upregulated (HepG2 cells [3]; 24 hours): 2,458 genes | genes significantly differentially expressed (HepG2 cells [3]; 24 hours): 7,789 genes | N, GO term Cell migration (HepG2 cells [3]; Downregulated 12 h): 28 | N, GO term Growth (HepG2 cells [3]; Downregulated 12 h): 27 | N, GO term Wound healing (HepG2 cells [3]; Downregulated 12 h): 25 | N, GO term Cell adhesion (HepG2 cells [3]; Downregulated 24 h): 149 | N, GO term Signal transduction (HepG2 cells [3]; Downregulated 24 h): 327 | N, GO term Wound healing (HepG2 cells [3]; Downregulated 24 h): 32 | N, GO term Cellular Response to DNA damage stimulus (HepG2 cells [3]; Upregulated 12 h): 48 | N, GO term Proteasome-mediated ubiquitin-dependent protein catabolic process (HepG2 cells [3]; Upregulated 12 h): 47 | N, GO term Response to unfolded protein (HepG2 cells [3]; Upregulated 12 h): 14 | N, GO term Apoptotic mitochondrial changes (HepG2 cells [3]; Upregulated 24 h): 6 | N, GO term Proteasome-mediated ubiquitin-dependent protein catabolic process (HepG2 cells [3]; Upregulated 24 h): 50 | N, GO term Response to unfolded protein (HepG2 cells [3]; Upregulated 24 h): 12 | area of neoplastic foci (histology) ([4]; H&E, versus HCC): restoration of the normal architecture of the liver | number of liver nodules / lesions ([4]; comparing to HCC animals): reduced lesions | reticular fibers (reticulin staining) ([4]; comparing to HCC group): reduced reticular fibers' breakage and restored their morphology | oral LD50 [5]: 5.53 mL/kg
